Measurements taken from ChEMBL document CHEMBL1155765, “Haterumaimides F-I, four new cytotoxic diterpene alkaloids from an ascidian Lissoclinum species” (J Nat Prod, 2001).

Assays:
[1] = Toxicity against Sea urchin fertilized eggs assessed as inhibition of cell division at 5 ppm; set-up: species or system Egg; details: echinoidea
P388 = experiment: Cytotoxicity against mouse P388 cells; assay type: functional, cell-based

SMILES: CC1(C)C[C@H](Cl)C[C@]2(C)[C@H]3C[C@@H]([C@H]4CC(=O)NC4=O)O[C@@]3(C)CC(=O)[C@@H]12 [HATERUMAIMIDE I]
- inhibition at 5 ppm [1]: 80%
- IC50 (P388): > 10 µg/mL
